Experimental data published in PubChem BioAssay AID2495 (Sanford-Burnham Center for Chemical Genomics, 2010).

Target: Kappa-type opioid receptor (Homo sapiens) (UniProt P41145)
Experiment: KOR antagonist analogs, beta-arrestin recruitment, SAR follow-up, cell-based, luminescence, set 2 (AID 2495)
Settings: antagonist mode

Sequence of Kappa-type opioid receptor (Homo sapiens) (P41145 whole entry, looked up): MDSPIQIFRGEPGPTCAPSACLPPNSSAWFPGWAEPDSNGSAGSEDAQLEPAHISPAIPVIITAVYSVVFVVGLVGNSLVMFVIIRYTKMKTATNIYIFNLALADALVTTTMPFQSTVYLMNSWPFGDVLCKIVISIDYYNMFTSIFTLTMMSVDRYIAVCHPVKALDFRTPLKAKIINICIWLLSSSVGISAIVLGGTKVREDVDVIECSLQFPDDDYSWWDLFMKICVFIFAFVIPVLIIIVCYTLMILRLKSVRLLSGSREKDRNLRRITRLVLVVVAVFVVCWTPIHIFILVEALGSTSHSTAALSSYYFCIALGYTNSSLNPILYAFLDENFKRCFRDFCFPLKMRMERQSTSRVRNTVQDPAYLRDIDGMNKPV

CCc1ccc(S(=O)(=O)NCc2ccc(C(=O)NCCN(Cc3ccccc3)C(C)C)cc2)cc1
IC50: 1120 nM
